≈ marks a conversion by molar mass, not a printed value.

A short description of data set [1]: Aqueous solubility in PBS pH 7.4 incubated for 24 hrs by nephelometry. In kind it is physicochemical.
Data set [2] is described as follows: Stability in mouse liver microsomes assessed as half life at 1 uM incubated for 120 mins by LC-MS/MS analysis. Particulars: 2 h. In kind it is ADME, Microsome. For orientation: Microsomes from liver hold many membrane-bound enzymes, among them those of drug oxidation.
Data set [3] can be described thus: Solubility of compound at 2 mg/ml incubated for 24 hrs by shake flask thermodynamic solubility method based HPLC analysis. In kind it is physicochemical.

As to `Cc1[nH]c2ccccc2c1CCNC(=O)c1ccc(N2CCOCC2)cc1`, the kinetic solubility (as a rule, solubility judged after dilution from a stock solution rather than from solid) at 24 h in data set [1] turned out to be 70 µM (≈ 25.4 µg/mL). This lies in the double-digit micromolar range.

`Cc1[nH]c2ccccc2c1CCNC(=O)c1ccc(N2CCOCC2)nc1` displayed a kinetic solubility at 24 h in data set [1] of 206 µM (≈ 75.1 µg/mL).

Turning to `Cc1[nH]c2ccccc2c1CCNC(=O)c1cnc(Nc2ccncc2)nc1`, the kinetic solubility at 24 h in data set [1] was 38 µM (≈ 14.2 µg/mL).

In data set [1], `Cc1cc(C)nc(Nc2ncc(C(=O)NCCc3c(C(F)(F)F)[nH]c4ccccc34)cn2)c1` yielded a solubility (kinetic) at 24 h of 45 µM (≈ 20.5 µg/mL).

`Cc1ccnc(Nc2ncc(C(=O)NCCc3c(C)[nH]c4ccccc34)cn2)c1` gave a kinetic solubility at 24 h in data set [1] of 25 µM (≈ 9.66 µg/mL). In addition, in data set [2], the t1/2 turned out to be 8 min.

Turning to `Cc1cc(C)nc(Nc2ncc(C(=O)NCCc3c(C(F)(F)F)[nH]c4ccccc34)cn2)c1.Cl`, the thermodynamic solubility (usually the concentration in solution at equilibrium with solid) at 24 h in data set [3] was 700 µM.

`Cc1ccc(Nc2ncc(C(=O)NCCc3c(C)[nH]c4ccccc34)cn2)c(C)n1` gave a kinetic solubility at 24 h in data set [1] of 100 µM (≈ 40 µg/mL).
